Values quoted from earlier work as cited in patent US11213557B2, “Lactobacillus plantarum CCFM1019, fermented foods thereof, and application thereof in preparation of medicine for promoting excretion of plasticizers and metabolites thereof from body” (priority 2018, dated 2022).

[1] = human body, 24 h after DEHP enters the body

Compound: CCCCC(CC)COC(=O)c1ccccc1C(=O)OCC(CC)CCCC (centres unmarked) [DEHP, bis(2-ethylhexyl) phthalate]
- Half-life (DEHP stored in adipose tissue): 156 h
- Absorption and distribution period (human body): 4 to 8 h
- Time within which most of the DEHP is completely metabolized (human body): ≤ 24 h
- DEHP converted into five secondary metabolites and excreted in urine [1]: about 67%
- DEHP directly excreted in urine [1]: less than 10%
